Measured values taken from patent publication US20080119513A1, “Sulfonamide Derivative Selectively Inhibiting Mmp-13” (priority 2004, published 2008).

Experiments:
Format in all cases: biochemical
MMP-12 = target: T1, MMP-12 (Homo sapiens, UniProt P39900); experiment: Assay for inhibitory activities on MMPs (fluorogenic peptide substrate), MMP-12
T1 construct: In regard to MMP-12, catalytic domain (^100Phe˜^263Gly) was amplified with RT-PCR; His-tag; enterokinase digestion-site
Procedure: In regard to MMP-12, catalytic domain (^100Phe˜^263Gly) was amplified with RT-PCR from Human Placenta Total RNA. This was cloned in Escherichia coli expression vector pTrc99AHE inserted with His-tag sequence and enterokinase digestion-site, induced and expressed by IPTG (Isopropyl-β-D-thiogalactopyranoside) and expressed in an insoluble fraction. Isolation of MMP-12 from an insoluble fraction was carried out by dissolving in modifier (6 M urea) by a usual method and purification with metal chelate chromatography (Ni Chelateing Sepharose). And then removing modifier (6 M urea) with dialysis and refolding of the enzyme spontaneously gave activated MMP-12.
(§1) The enzymatic activity on MMPs was analyzed by the method described in “C. Graham Knight, Frances Willenbrock and Gillian Murphy: A novel coumarin-labelled peptide for sensitive continuous assays of the matrix metalloproteinases: FEBS LETT., 296, (1992), 263-266”. The substrate: MOCAc-Pro-Leu-Gly-Leu-A2Pr(DNP)-Ala-Arg-NH2 was purchased from Peptide Institute, Inc., Osaka, Japan. The measurement of the inhibitory activities (IC50) was carried out by the following four methods;
(§2) (A) Reaction with substrate, enzyme (MMPs) and inhibitor
(§3) (B) Reaction with substrate and inhibitor, without enzyme
(§4) (C) Reaction with substrate and enzyme (MMPs), without inhibitor
(§5) (D) Reaction with substrate only
(§6) IC50 values were calculated by using the following formula and each fluorescence values of above four methods (A to D).
(§7) % inhibition={1-(A−B)/(C−D)}×100
(§8) IC50 means the concentration required to inhibit 50% of the enzyme activity.
(§9) The value of inhibitory activity against MMP-2, MMP-8, MMP-9, MMP-12, and MMP-13 measured by above mentioned methods are shown in Table 25 and 26.

MMP-9 = MMP-9 (Homo sapiens, UniProt P14780); experiment: Assay for inhibitory activities on MMPs (fluorogenic peptide substrate), MMP-9
Source text: MMP-9 was isolated and purified by the procedure of Y. Okada et al. (Yasunori Okada, Yukio Gonoji, Katsumi Naka, Katsuro Tomita, Isao Nakanishi, Kazushi Iwata, Kyoko Yamashita, and Taro Hayakawa: Matrix metalloproteinase 9 (92-kDa gelatinase/type IV collagenase) from HT1080 human fibrosarcoma cells. Purification and activation of the precursor and enzymic properties, J. Biol. Chem., 1992, 267, 21712-21719) in combination with other following methods: 1) Yasunori Okada, Tatsuhisa Morodomi, Jan J, Enghild, Ko Suzuki, Atsushi Yasui, Isao Nakanishi, Guy Salvesen and Hideaki Nagase: Matrix metalloproteinase 2 from human rheumatoid synovial fibroblasts. Purification and activation of the precursor and enzymic properties, Eur. J. Biochem., 1990, 194, 721-730; 2) Robin V Ward, Rosalind M Hembry, John J Reynolds and Gillian Murphy: The purification of tissue inhibitor of metalloproteinase-2 from its 72 kDa progelatinase complex. Biochem. J., 1991, 278, 179-187. In detail, human fibrosarcoma ATCC HT1080 cell line was cultured to confluent in Dulbecco's Modified Medium (DMEM) containing 10% fetal-calf serum at 37° C. for 48 hours. Subsequently, the medium of confluent culture was changed to serum-free DMEM medium. To obtain MMP-9, phorbol-12-myristate-13-acetate (TPA) must be added to this serum-free DMEM medium at a concentration of 50 ng/ml. The TPA-treated medium was centrifuged at 3000 rpm for 15 min, and the supernatant was concentrated to 450 ml by a Toyo-Roshi UP-20 apparatus with an ultrafiltration membrane. Then, proMMP-9 in this concentrated solution was purified by using columns of Gelatin-Sepharose and Concanavalin A-Sepharose. The pool containing proMMP-9 was dialyzed, concentrated (Toyo-Roshi UP-20) and applied to columns of Sephacryl S-200 and Green A matrix for the separation from TIMPs. The obtained proMMP-9 fraction was activated by TPCK-Trypsin (Final conc.: 3 μg/501 React Mix.).
as §1, §2, §3, §4, §5, §6, §7, §8, §9

MMP-2 = target: T2, MMP-2 (Homo sapiens, UniProt P08253); experiment: Assay for inhibitory activities on MMPs (fluorogenic peptide substrate), MMP-2
T2 sequence (P08253 110-660): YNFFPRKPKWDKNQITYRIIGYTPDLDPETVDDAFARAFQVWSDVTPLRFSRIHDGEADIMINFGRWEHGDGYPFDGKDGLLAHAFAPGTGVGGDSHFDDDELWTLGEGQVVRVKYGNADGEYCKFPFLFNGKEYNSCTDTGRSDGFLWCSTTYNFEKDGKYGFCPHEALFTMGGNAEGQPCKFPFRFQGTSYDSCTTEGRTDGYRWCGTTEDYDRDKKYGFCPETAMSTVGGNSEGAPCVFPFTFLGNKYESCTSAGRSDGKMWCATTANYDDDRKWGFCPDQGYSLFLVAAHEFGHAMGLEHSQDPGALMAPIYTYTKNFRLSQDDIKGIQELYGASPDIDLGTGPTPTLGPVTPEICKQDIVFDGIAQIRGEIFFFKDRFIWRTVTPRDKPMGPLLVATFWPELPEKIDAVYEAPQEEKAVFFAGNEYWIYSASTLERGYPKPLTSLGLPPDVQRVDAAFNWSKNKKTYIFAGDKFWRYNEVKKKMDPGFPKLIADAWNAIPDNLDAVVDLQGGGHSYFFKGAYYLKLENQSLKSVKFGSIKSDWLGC
Procedure: MMP-2 was purchased from Calbiochem-Novabiochem International, Inc.
as §1, §2, §3, §4, §5, §6, §7, §8, §9

MMP-8 = target: T3, MMP-8 (Homo sapiens, UniProt P22894); experiment: Assay for inhibitory activities on MMPs (fluorogenic peptide substrate), MMP-8
T3 construct: In regard to MMP-8, catalytic domain (^99Phe˜^262Gly) was amplified with PCR; His-tag; enterokinase digestion-site
Source text: In regard to MMP-8, catalytic domain (^99Phe˜^262Gly) was amplified with PCR using commercial available Human Bone Marrow cDNA. This was cloned in Escherichia coli expression vector pTrc99AHE inserted with His-tag sequence and enterokinase digestion-site, induced and expressed by IPTG (Isopropyl-β-D-thiogalactopyranoside) and expressed in a insoluble fraction (Than F. Ho, M. Walid Qoronfleh, Robert C. Wahl, Trica A. Pulvino, Karen J. Vavra, Joe Falvo, Tracey M. Banks, Patricia G. Brake and Richard B. Ciccarelli: Gene expression, purification and characterization of recombinant human neutrophil collagenase. Gene 146, (1994) 297-301. It was prepared by the method in a slight modification). Isolation of MMP-8 from an insoluble fraction was carried out by dissolving in modifier (6 M urea) by a usual method and purification with metal chelate chromatography. And then removing modifier (6 M urea) with dialysis and refolding of the enzyme spontaneously gave activated MMP-8.
as §1, §2, §3, §4, §5, §6, §7, §8, §9

MMP-13 = target: T4, MMP-13 (Homo sapiens, UniProt P45452); experiment: Assay for inhibitory activities on MMPs (fluorogenic peptide substrate), MMP-13
T4 construct: catalytic domain (^104Tyr˜^267Gly) was amplified with RT-PCR; His-tag; enterokinase digestion-site
Procedure: In regard to MMP-13, mRNA was prepared from carcinoma cell SW1353 derived from human cartilage stimulate by IL-1 and TNF, and catalytic domain (^[…]) was amplified with RT-PCR. This was cloned in Escherichia coli expression vector […] inserted with His-tag sequence and enterokinase digestion-site, induced and expressed by IPTG (Isopropyl-β-D-thiogalactopyranoside) and expressed in an insoluble fraction. Isolation of MMP-13 from an insoluble fraction was carried out by dissolving in modifier (6 M urea) by a usual method and purification with metal chelate chromatography (Ni […] Sepharose). And then removing modifier (6 M urea) with dialyze and refolding of the enzyme spontaneously gave activated MMP-13. The enzymatic activity on MMPs was analyzed by the method described in “C. Graham Knight, Frances Willenbrock and Gillian Murphy: A novel coumarin-labelled peptide for sensitive continuous assays of the matrix metalloproteinases: FEBS LETT., 296, (1992), 263-266”. The substrate: MOCAc-[…] was purchased from Peptide Institute, Inc., Osaka, Japan. The measurement of the inhibitory activities (IC50) was carried out by the following four methods; (A) Reaction with substrate, enzyme (MMPs) and inhibitor (B) Reaction with substrate and inhibitor, without enzyme (C) Reaction with substrate and enzyme (MMPs), without inhibitor (D) Reaction with substrate only IC50 values were calculated by using the following formula and each fluorescence values of above four methods (A to D). % inhibition={1-(A-B)/(C-D)}×100 IC50 means the concentration required to inhibit 50% of the enzyme activity. The value of inhibitory activity against MMP-2, MMP-8, MMP-9, MMP-12, and MMP-13 measured by above mentioned methods are shown in Table 25 and 26.

T1 sequence (P39900 100-263): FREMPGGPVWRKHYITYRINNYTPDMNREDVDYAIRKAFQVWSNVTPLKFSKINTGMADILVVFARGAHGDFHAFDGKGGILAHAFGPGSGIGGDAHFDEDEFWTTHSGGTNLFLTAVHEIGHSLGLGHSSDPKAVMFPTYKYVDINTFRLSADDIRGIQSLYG
Chain of MMP-9 (P14780 107-707): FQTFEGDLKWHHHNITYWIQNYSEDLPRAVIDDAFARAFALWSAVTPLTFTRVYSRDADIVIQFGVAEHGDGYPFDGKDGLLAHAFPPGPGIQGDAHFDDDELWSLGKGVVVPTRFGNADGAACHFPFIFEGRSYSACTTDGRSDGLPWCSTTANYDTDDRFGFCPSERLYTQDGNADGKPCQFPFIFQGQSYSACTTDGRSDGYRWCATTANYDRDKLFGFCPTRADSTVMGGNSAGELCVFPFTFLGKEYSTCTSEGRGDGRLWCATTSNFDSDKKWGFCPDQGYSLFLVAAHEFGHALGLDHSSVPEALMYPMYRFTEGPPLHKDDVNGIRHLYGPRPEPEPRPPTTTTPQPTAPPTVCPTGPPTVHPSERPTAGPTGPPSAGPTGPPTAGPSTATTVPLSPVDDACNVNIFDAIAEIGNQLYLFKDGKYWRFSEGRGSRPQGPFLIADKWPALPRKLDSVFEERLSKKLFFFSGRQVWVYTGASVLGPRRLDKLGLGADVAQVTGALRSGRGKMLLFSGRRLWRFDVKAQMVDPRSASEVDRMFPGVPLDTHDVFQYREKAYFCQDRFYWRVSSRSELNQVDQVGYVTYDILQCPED
T3 sequence (P22894 99-262): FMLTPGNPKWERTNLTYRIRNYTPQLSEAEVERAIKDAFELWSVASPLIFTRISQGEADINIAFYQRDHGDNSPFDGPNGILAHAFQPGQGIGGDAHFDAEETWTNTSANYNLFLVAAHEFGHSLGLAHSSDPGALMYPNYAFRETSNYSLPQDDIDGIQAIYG

| IC50 (MMP-12) [nM] | IC50 (MMP-9) [nM] | IC50 (MMP-2) [nM] | IC50 (MMP-8) [nM] | IC50 (MMP-13) [nM] | Compound |
| --- | --- | --- | --- | --- | --- |
| 146 | > 10000 | 239 | 190 | 6.32 | COc1ccc2cc(C#Cc3ccc(-c4ccc(S(=O)(=O)N[C@H](CCSC)C(=O)O)cc4)cc3)ccc2c1 [III-24] |
| > 10000 | > 10000 | > 10000 | > 10000 | 19.3 | COc1ccc2cc(C#Cc3ccc(-c4ccc(S(=O)(=O)N[C@@H](CO)C(=O)O)cc4)cc3)ccc2c1 [III-45] |
| > 10000 | > 10000 | 726 | > 10000 | 38.1 | C[C@@H](NS(=O)(=O)c1ccc(-c2ccc(NC(=O)c3ccc4ccccc4c3)cc2)cc1)C(=O)O [VI-37] |
| 503 | > 10000 | 167 | 641 | 27.2 | O=C(C#Cc1ccccc1)Nc1ccc(-c2ccc(S(=O)(=O)N[C@H](Cc3ccccc3)C(=O)O)cc2)cc1 [VI-13] |
| > 10000 | > 10000 | 178 | > 10000 | 44.6 | O=C(/C=C/c1ccccc1)Nc1ccc(-c2ccc(S(=O)(=O)N[C@H](Cc3ccccc3)C(=O)O)cc2)cc1 [VI-9] |
| 334 | > 10000 | 197 | 1740 | 31.1 | O=C(Nc1ccc(-c2ccc(S(=O)(=O)N[C@H](Cc3ccccc3)C(=O)O)cc2)cc1)c1ccc2c(c1)OCO2 [VI-12] |
| > 10000 | > 10000 | > 10000 | > 10000 | 19.9 | COc1ccc2cc(C#Cc3ccc(-c4ccc(S(=O)(=O)N[C@@H](C)C(=O)O)cc4)cc3)ccc2c1 [III-18] |
| 66.9 | > 10000 | 243 | 63.2 | 13.7 | CCC(C)[C@H](NS(=O)(=O)c1ccc(-c2ccc(NC(=O)c3ccc4ccccc4c3)cc2)cc1)C(=O)O (stereo partly shown) [VI-43] |
| 162 | > 10000 | 502 | 252 | 48.4 | CSCC[C@H](NS(=O)(=O)c1ccc(-c2ccc(NC(=O)c3ccc4ccccc4c3)cc2)cc1)C(=O)O [VI-44] |
| 118 | > 10000 | > 10000 | 109 | 50.8 | COc1ccc2cc(C#Cc3ccc(-c4ccc(S(=O)(=O)N[C@H](CSC)C(=O)O)cc4)cc3)ccc2c1 [III-49] |
| > 10000 | > 10000 | 292 | > 10000 | 22.2 | O=C(Nc1ccc(-c2ccc(S(=O)(=O)N[C@H](Cc3ccccc3)C(=O)O)s2)cc1)c1ccc2ccccc2c1 [VI-51] |
| 952 | > 10000 | 127 | > 10000 | 35.6 | Cc1ccc(C(=O)Nc2ccc(-c3ccc(S(=O)(=O)N[C@H](C)C(=O)O)cc3)cc2)cc1 [VI-17] |
| 901 | > 10000 | > 10000 | 4460 | 20.1 | COc1ccc2cc(C#Cc3ccc(-c4ccc(S(=O)(=O)N[C@@H](Cc5c[nH]c6ccccc56)C(=O)O)cc4)cc3)ccc2c1 [III-31] |
| 232 | > 10000 | 2220 | 215 | 68.7 | COc1ccc(C(=O)Nc2ccc(-c3ccc(S(=O)(=O)N[C@@H](CCSC)C(=O)O)cc3)cc2)cc1OC [VI-35] |
| > 10000 | > 10000 | > 10000 | > 10000 | 143 | COc1ccc2cc(C#Cc3ccc(-c4ccc(S(=O)(=O)NC(Cc5ccc(F)cc5)C(=O)O)cc4)cc3)ccc2c1 (stereo not shown) [III-47] |
| > 10000 | > 10000 | > 10000 | 5300 | 78.8 | COc1ccc2cc(C#Cc3ccc(-c4ccc(S(=O)(=O)N[C@@H](Cc5ccccc5)C(=O)O)cc4)cc3)ccc2c1 [III-29] |
| 36.8 | > 10000 | 58.9 | 33.3 | 2.71 | COc1ccc2cc(C#Cc3ccc(-c4ccc(S(=O)(=O)N[C@H](CCC(=O)O)C(=O)O)cc4)cc3)ccc2c1 [III-27] |
